The source of these data is patent publication US20260138969A1 (Korea Research Institute of Chemical Technology, priority 2023, published 2026).

SMILES strings stand for the structures.

The term viability denotes the share of living cells, or the viability signal relative to a control. The term EC50 denotes the concentration that produces a half-maximal response. Lower therefore signals an effect from little substance. Usually Kp stands for tissue or fluid exposure divided by exposure in the circulation. Broadly, the IC50 is the concentration needed to halve the response being measured. As usually defined, the efflux ratio is a quotient of directional permeabilities that is used to spot active efflux. For orientation: Papp A→B means how fast a substance crosses the layer from the apical side. As usually defined, the Papp B→A is how fast a substance crosses the layer from the basolateral side.

For data set [1], the system named is PC12 cells. Description: Neuronal protective efficacy against 6-OHDA (MTT). The note with it: Rattus norvegicus, PC-12, 6-OHDA 40 μM, Control = 100, read-out: cell viability (AVE). It counts as cell-based. The procedure:
(§1) The neuronal toxicity substances 6-OHDA (6-hydroxydopamine hydrobromide) and MPP+ (1-methyl-4-phenylpyridinium) were purchased from Sigma-Aldrich (Saint Louis, MO, USA) and made into 100 mM DMSO stock. PC12 cells were seeded on 96-well plates with 4 pieces of 1×10 per well and incubated for one day. The cells were pretreated with each concentration of embodied compound for 1 h. Subsequently, 40 μM 6-OHDA and 2 mM MPP^+ were added and incubated for 24 hours, respectively. Subsequently, cell viability was measured using MTT (Invitrogen, MA, USA).

For data set [2], the system named is CDAHFD-induced non-alcoholic steatohepatitis mouse model. Description: CDAHFD-induced non-alcoholic steatohepatitis mouse model: liver fibrosis (Picrosirius red). It counts as in vivo. Conditions: Selonsertib 30 mg/kg, Example 3 10 and 30 mg/kg, Example 2 10 and 30 mg/kg PO QD; CDAHFD diet 4 and 8 weeks. The procedure: Creation of CDAHFD-induced NASH model and drug administration were carried out by dividing C57BL/6 male mice at 3 weeks of age into 7 groups as shown in Table 16 below. The control group (G1) was fed standard feed and water. Groups G2 to G7 were fed the CDAHFD (Research Diet Inc, #A06071302) diet for 4 and 8 weeks.
Picrosirius red staining was used for histological visualization of collagen fibers. Histopathology analysis evaluated the efficacy of improving liver fibrosis.
For mice in each group, three sections of the liver fixed with 4% PFA (paraformaldehyde) were prepared with paraffin blocks. Paraffin blocks were sectioned to a thickness of 5 μm (Histocore AUTOCUT R, Leica Microsystems, Germany) and the sections were mounted on silane-coated slides (MUTO, JPN) and stored until staining.
Xylene was used to remove paraffin from the slides, and the slides were moisturized and washed. The slides were stained with a solution of Picrosirius red (ab150681, Abcam, UK) and washed off with a solution of acetic acid. The slides were fitted after dehydration and cleaning using alcohol and xylene. For each section, two images of different areas were taken using a microscope (Axioscan7, ZEISS, Germany). The fibrotic area was measured using image J software compared to the total area. FIGS. 23a and 23b are graphs and images of Picrosirius red stained area ratios in the liver of a CDAHFD-induced mouse model of nonalcoholic steatohepatitis.

Data set [3] relates to PC12 cells. Description: Neuronal protective efficacy against MPP+ (MTT). It counts as cell-based. Conditions: Rattus norvegicus, PC-12, MPP 2 mM, Control = 100, read-out: cell viability (AVE). The procedure: as §1
The subject of a further data set is SH-SY5Y cells. Description: Cytoprotective effects in MPP+-induced human neurons (CCK-8). It counts as cell-based. Conditions: MPP+ 5 mM induced cytotoxicity, cell viability by CCK-8. The procedure: SH-SY5Y cells were purchased from ATCC and cultured at 37° C. and 5% CO2 in RPMI medium containing 10% FBS and 1% penicillin and streptomycin. MPP+ was purchased from Sigma Aldrich and treated with 5 mM to induce cytotoxicity.

A short description of data set [4]: Distribution in the mouse brain (plasma and brain AUC). It counts as in vivo. The procedure:
The blood-brain barrier permeability in ICR mice was confirmed by oral administration of 10 mg/kg of test material. Male […] mice were fasted for 15 h prior to administration. The test material was administered at a dose of 10 mg/kg and a volume of 5 mL/kg, and the solvent composition was N-Methyl-2-pyrrolidone (NMP), Polyethylene glycol 400 (PEG 400), and distilled water (D.W) at a volume ratio of 10:40:50(%), respectively. After administration, blood and brain tissue samples were taken by sacrificing mice with carbon dioxide inhalation at each time point corresponding to 1, 4, and 8 hours. Whole blood was collected from the abdominal vena cava, and brain samples were collected after systemic perfusion with saline to remove as much blood as possible.
The distribution ratio in mouse plasma and brain was calculated by calculating the AUC after concentration quantification in each tissue.

In data set [5] the target is T1, recombinant human ASK1 protein (Homo sapiens, UniProt Q99683).
T1 sequence (Q99683 1-1374): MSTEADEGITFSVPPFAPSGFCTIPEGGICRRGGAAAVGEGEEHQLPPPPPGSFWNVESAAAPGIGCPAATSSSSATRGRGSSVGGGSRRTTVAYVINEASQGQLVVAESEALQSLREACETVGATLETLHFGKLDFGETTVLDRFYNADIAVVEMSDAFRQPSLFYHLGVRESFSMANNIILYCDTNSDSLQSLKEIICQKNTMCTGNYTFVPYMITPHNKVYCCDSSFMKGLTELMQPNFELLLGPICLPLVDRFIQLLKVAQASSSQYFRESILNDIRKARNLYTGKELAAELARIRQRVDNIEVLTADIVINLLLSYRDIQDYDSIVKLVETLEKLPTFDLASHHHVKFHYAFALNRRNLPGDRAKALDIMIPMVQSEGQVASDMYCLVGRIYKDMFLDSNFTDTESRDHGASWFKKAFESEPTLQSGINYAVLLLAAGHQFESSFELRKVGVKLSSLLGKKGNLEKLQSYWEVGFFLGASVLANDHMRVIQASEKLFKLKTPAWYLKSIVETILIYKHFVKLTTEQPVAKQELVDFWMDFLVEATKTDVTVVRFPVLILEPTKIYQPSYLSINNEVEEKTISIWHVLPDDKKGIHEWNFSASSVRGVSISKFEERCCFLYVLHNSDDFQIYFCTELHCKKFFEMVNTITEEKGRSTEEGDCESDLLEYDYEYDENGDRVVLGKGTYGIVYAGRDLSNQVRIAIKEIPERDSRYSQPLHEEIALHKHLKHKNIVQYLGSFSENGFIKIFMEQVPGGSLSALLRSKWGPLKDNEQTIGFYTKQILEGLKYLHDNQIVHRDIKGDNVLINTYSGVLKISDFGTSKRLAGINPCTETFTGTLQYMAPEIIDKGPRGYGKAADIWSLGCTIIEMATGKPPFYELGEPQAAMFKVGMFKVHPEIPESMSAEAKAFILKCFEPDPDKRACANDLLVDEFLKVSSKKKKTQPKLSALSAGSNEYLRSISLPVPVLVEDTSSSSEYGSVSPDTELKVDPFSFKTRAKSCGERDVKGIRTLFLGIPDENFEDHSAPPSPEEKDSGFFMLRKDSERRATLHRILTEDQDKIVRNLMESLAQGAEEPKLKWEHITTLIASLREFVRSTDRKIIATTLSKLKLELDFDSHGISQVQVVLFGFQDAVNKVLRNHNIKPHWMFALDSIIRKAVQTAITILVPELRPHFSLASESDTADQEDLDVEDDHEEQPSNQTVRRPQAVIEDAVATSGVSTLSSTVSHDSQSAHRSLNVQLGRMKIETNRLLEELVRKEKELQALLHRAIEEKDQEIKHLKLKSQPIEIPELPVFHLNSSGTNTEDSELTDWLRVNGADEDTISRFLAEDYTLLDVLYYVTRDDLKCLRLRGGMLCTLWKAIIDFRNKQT
Description: Evaluation of ASK1 inhibition activity ([gamma-33P]-ATP, scintillation counting). It counts as biochemical. The procedure: The recombinant human ASK1 protein was initiated by adding a mixture of Mg/ATP to the reaction solution (8 mM MOPS PH 7.0, 0.2 mM EDTA, 0.33 mg/mL myelin basic protein, 10 mM Mg Acetate and [gamma-33P]-ATP), and the reaction was terminated by adding 0.5% phosphoric acid after 40 min at room temperature.

Another data set deals with MDR1. Description: MDR-MDCK cell membrane permeability assessment. The note with it: dog; MDCK-MDR1 monolayer. It counts as in vitro ADME. The procedure: (§2) MDCK-MDR1 cells (5×10^5 cells/mL) were incubated on a 24-transwell plate (Corning, NY, USA) for 4 days to measure permeability through a single layer of MDR-MDCK cells. The medium was replaced with a new medium every two days, and the electrical resistance between epithelial tissues (TEER) was measured using a Millicell® ERS-2 Volohmmeter (Merck KGaA, Darmstadt, Germany), and the cell membrane permeability test was performed after confirming that this value was greater than or equal to 300 Ohm.cm^2.
(§3) The apical and basolateral chambers were washed twice each in the order of Hanks' Balanced Salt Solution (HBSS) containing DPBS buffer and 10 mM Hydroxyethyl piperazine Ethane sulfonic acid (HEPES), and in the final washing step, HBSS was filled and maintained at a stable state at 37° C. for 30 minutes. After 30 minutes, the test material was instilled in each chamber and left at 37° C. for 2 hours, and the culture medium of the transferred layer was collected at 30-minute intervals, and the collected amount was supplemented with new HBSS.
(§4) The apparent permeability coefficient (Papp, cm/sec) was calculated using the following formula:
(§5) [formula] • Papp: Apparent permeability • dQ/dt: Permeability of the drug • A: Area of the filter membrane on which the cells are laid • C_0: Initial concentration of the drug
(§6) In addition, the Efflux ratio was calculated as follows: […]

Data set [6] in a line: MDR-MDCK cell membrane permeability assessment. It counts as in vitro ADME. The note with it: dog; MDCK-MDR1 monolayer, 37° C., 2 hours. The procedure: as §2, §3, §4, §5, §6
The subject of data set [7] is Reserpine-induced fibromyalgia rat model. Description: Reserpine-induced fibromyalgia rat model: pain (von Frey test). It counts as in vivo. The note with it: gabapentin 50 mg/kg IP QD; Example 2 3, 10, 30 mg/kg PO QD; days 1, 2, 4, 6. The procedure: Reserpine-induced fibromyalgia model generation and drug administration were carried out on 6-week-old male SD rats divided into 6 groups as shown in Table 15 below: control group (G1), reserpine+delivery (G2), reserpine+gabapentin 50 mg/kg (G3), reserpine+Example 2 3 mg/kg (G4), 10 mg/kg (G5), and 30 mg/kg (G6). To create a rat fibromyalgia model, reserpine (Sigma-aldrich, 1 mg/kg) dissolved in 0.5% acetic acid was administered subcutaneously once for 3 days from 3 days before the start of the experiment. Beginning on Day 1, the once-daily (QD) delivery body, gabapentin, and embodiment 2 were administered intraperitoneally (IP) or orally (PO) 2 hours before the experiment was performed.
The right hind foot tactile response test (von Frey test) was performed 5 times (before the fibromyalgia model, and on the 1st, 2nd, 4th and 6th days after the model was generated). Before all behavioral tests, rats were accustomed to the environment for 30 minutes, and all experimenters performing behavioral tests were made blind to drug administration information. Before model generation, baseline measurements were performed by performing the von Frey test on all rats. The rat was placed on a wired mesh and placed in a transparent plastic box (20×20×14 cm), and the foot withdrawal threshold was measured by applying a von Frey filament (ascending weight: 0.4, 0.6, 1.4, 2, 4, 6, 8, and 15 g, North Coast) to the middle of the right hind foot to assess foot allodynia.

The mark [8] stands for this setting: oral 10 mg/kg, samples at 1, 4, 8 hours.

In the case of `Cc1cc(F)c(C(=O)Nc2cccc(-c3nncn3C(C)C)n2)cc1-n1cnc(C2CC2)c1` [Comparative Example 1, Selonsertib, reference compound], the values for the viability at 0.1 µM in the data set with PC12 cells [1] (compound 0.1 μM) and in the data set on PC12 cells [3] (compound 0.1 μM) were 87.9% and 83.6%, respectively. Moreover, the viability at 0.3 µM turned out to be 89.2% with PC12 cells [1] (compound 0.3 μM) and 81.3% in the data set with PC12 cells [3] (compound 0.3 μM). Besides, the viability at 1 µM in the data set with PC12 cells [1] (compound 1 μM) worked out at 84.1%; in the data set on PC12 cells [3] (compound 1 μM) it was 81.3%. Moreover, in data set [2], the “Picrosirius red staining area in the liver” value is “significantly reduced”. In the data set on SH-SY5Y cells, this molecule yielded an EC50 of 89 nM. In [4] (male, brain/plasma, po, 10 mg/kg), the Kp stood at 0.004. The molecule further returned an Aukinf brain in data set [4] (setting [8]) of 0.26 ± 0.03 ug*h · g. In [4] (setting [8]), this molecule had an Aukinf plasma of 69.9 ± 3.48 µg·mL·h.
Consider `Cc1cc(F)c(C(=O)Nc2cccc(-n3nnc4c3CCCCC4)n2)cc1-n1cnc(C2CC2)c1` [Example 4, 5-(4-cyclopropyl-1H-imidazole-1-yl)-2-fluoro-4-methyl-N-(6-(5,6,7,8-tetrahydrocyclohepta[d][1,2,3]triazole-1 (4H)-yl)pyridine-2-yl)benzamide], for which the concentration for half-maximal inhibition (IC50) in [5] turned out to be 92 nM. The efflux ratio at 2 h with MDR1 came to 1.53. In data set [6], this molecule displayed a Papp A→B at 2 h of 57.3 ± 4.23 ×10⁻⁶ cm/s and an apparent permeability from basolateral to apical (Papp B→A) at 2 h of 87.4 ± 3.39 ×10⁻⁶ cm/s.
On to `NCC1(CC(=O)O)CCCCC1` [Gabapentin, reference compound], for which the “sensitivity (foot withdrawal threshold, von Frey test)” value in data set [7] is “gradually improved over time”.
